Assays:
lysosomal exocytosis = settings: cited from earlier work
WT MEFs [1] = assay: Immunoblot of APP-CTFs in drug-treated WT MEFs; type: cell-based, mouse; settings: 1 μM for 1-4 days, vs DMSO
Experimental: (§1) Cells were treated with the following drugs, usually for 4 days, unless otherwise stated: DAPT (2634/10, Tocris) 1 μM final; Inhibitor X (565771-250 μg, Calbiochem/Merck) 1 μM final; β-Secretase Inhibitor IV (565788, Calbiochem/Merck) 2 μM final, (2-Hydroxypropyl)-γ-cyclodextrin (H125-5G-I, Sigma Aldrich) 1 mM final; Adam 10 inhibitor G1254023X (SML0789, Sigma Aldrich) 3 μM final. For OSW-1 (30310-1, Sanbio/Cayman Chemical), cells were treated overnight with 10 nM. Diluent treatment alone (in most cases DMSO, water for the cyclodextrin) was used as vehicle control.
Whole cell extracts were prepared starting from lysed cultured cells (80% confluency). Protein concentration was determined using the Bio-Rad DC protein assay (Bio-Rad). These extracts were run on 4-12% Bis-Tris Bolt or NuPAGE precast gels in MES/MOPS running buffer (Invitrogen), followed by transfer on nitrocellulose membranes (Life Technologies). Of note, for APP-CTFs characterization, samples were run on 16% tricine gels (Life Technologies) in the appropriate running buffer (LC1675, Life Technologies). Membranes were blocked with 5% non-fat milk (1 h, RT), incubated with primary antibodies (overnight, 4° C.), rinsed and incubated with HRP-conjugated secondary antibodies (1 h, RT). […]

APPKO cells = assay: Lysosomal Ca2+ content, Fura-2AM loaded cells challenged with GPN, APPKO cells; type: cell-based, mouse; settings: 1 μM, 4 days, normalized to DMSO
Description: Diluent treatment alone (in most cases DMSO, water for the cyclodextrin) was used as vehicle control.
Briefly, the web-based CRISPR design tool was used to select the sequence to be targeted in mouse PSEN1 and PSEN2 (i.e. 5′-[…]-3′ and 5′-[…]-3′, respectively). Oligo pairs encoding guide sequences (obtained from Integrated DNA Technologies, IDT) were annealed and ligated into the pX330 plasmid (Addgene) according to the Zhang's laboratory protocol (https://www.addgene.org/crispr/zhang/). MEF cells were then transfected with the pX330-PSEN1 and PX330-PSEN2, using Fugene HD (Promega), in accordance with the manufacturer protocol. Selection of PSENdKO clones was achieved through serial dilution and confirmed by WB analysis. Further depletion of APP in different PSENdKO clones was achieved through electroporation of RNP complexes. […]
Cells were rinsed three times and left to equilibrate for at least 15-20 min (RT). […] Briefly, cells were segmented manually and fluorescence intensities were measured over time. Fura-2 signals were corrected to obtain ΔF/F0 (F0 being the initial signal recorded). For each cell, the area under the curve, corresponding to the aforementioned stimulation, was measured using GraphPad Prism.

WT MEFs [2] = assay: Confocal immunofluorescence (compartment size, Mander's colocalization, filipin) in WT MEFs; type: cell-based, mouse
Experimental: as §1
Immunofluorescence: Cells were fixed (4% paraformaldehyde (PFA)/4% sucrose in PBS free of Ca2+ and Mg2+ (PBS−/−) 20 min, RT), permeabilized (0.1% triton X-100 in PBS−/−; 10 min, RT), and blocked (2% BSA, 2% FBS, 1% gelatin, and depending of the experiment 2% of goat or donkey serum (Bioké or Sigma), 1 h RT). Primary antibodies diluted in the same blocking buffer were incubated overnight at 4° C. Following PBS washing steps, (goat- or donkey-) secondary antibodies conjugated with Alexa fluor dyes (Alexa 488, 568, or 647, all ThermoFisher Scientific) diluted in the blocking buffer were incubated for 1 h, RT. Coverslips were then mounted with Mowiol (Sigma). When cholesterol labelling was performed, fixed cells were treated with 200 μg·ml−1 filipin (F4767, Sigma) for 2 h at RT, prior to permeabilization.
Acquisition: Z stack images (spacing 2 μm), or a median plan were acquired on a Nikon 1AR connected to an inverse Nikon Ti-2000 equipped with an oil-immersion plan APO 60× objective lenses with 1.40 NA. Data were collected using Nikon Imaging Software.
Image analysis: All image analysis was done using Image J software (Schindelin et al 2012; Schneider et al 2012). To measure the area of the organelle of interest (early endosomes-EEA1; lysosomes-Lamp1; retromer-VPS35 . . . ), segmentation was realized using automatic thresholding. The following masks were used: Mean (EEA1), Ostu (Lamp1), Intermodes (VPS35). Overlap of signal of interests were quantified with Manders colocalisation index (Plugin Jacob, (Bolte and Cordelieres 2006)). When indicated, co-localization data was normalized to the reference group for multiple comparisons.

WT MEFs [3] = assay: Lysosomal Ca2+ content, Fura-2AM loaded cells challenged with GPN, WT cells; type: cell-based, mouse; settings: normalized to DMSO
Experimental: as §1
Cytosolic response: Ca2+ responses were measured as previously described in Coen et al 2012. Briefly, cells (0.005 to 0.01×106) were seeded two to three days prior to the experiment on glass coverslips (631-0153, VWR). On the day of recording, cells were rinsed three times in Ringer solution (155 mM NaCl, 5 mM KCl, 2 mM MgCl2, 2 mM CaCl2, 10 mM Glucose, 10 mM HEPES, 2 mM NaH2PO4·2H20; pH 7.3), and loaded 1 μM Fura2-AM (F1221, ThermoFisher Scientific) for 30 min (RT). Cells were rinsed three times and left to equilibrate for at least 15-20 min (RT). All acquisitions were carried out in Ringer Ca2+ free solution (same as above, albeit the 2 mM CaCl2 were replaced by 2 mM EGTA). During experiments, cells were challenged with different drugs, such as Thapsigargin (T7459, ThermoFisher Scientific, 1 μM final), GPN (ab145914, abcam, 100 μM final for MEFs, 500 μM for neurons), MLSA1 (Cat. No. 4746, Tocris, 20 μM final) or lonomycin (10634, Sigma Aldrich, 1 μM final). Images were acquired every 5 sec for 8-10 min, using an Olympus IX81 using an UAPO/340 40× oil objective (1.35 NA), operated by CellR Software (Olympus). Recordings were done using 340 and 380 nm excitation, and 530 nm emission filters. Image processing was performed using Image J Software (Schindelin et al 2012; Schneider et al 2012). Briefly, cells were segmented manually and fluorescence intensities were measured over time. Fura-2 signals were corrected to obtain ΔF/F0 (F0 being the initial signal recorded). For each cell, the area under the curve, corresponding to the aforementioned stimulation, was measured using GraphPad Prism.

SMILES | lysosomal exocytosis and cholesterol accumulation (lysosomal exocytosis) | APP-CTFs level (immunoblot) (WT MEFs [1]) | Lysosomal Ca2+ content (GPN-elicited Ca2+ response) (APPKO cells) | early endosomes (EEA1) size (WT MEFs [2]; 1 μM for 1-4 days) | APP-CTF accumulation in LAMP1-positive LE/Lys (Mander's colocalization APP-Lamp1) (WT MEFs [2]; 1 μM for 1-4 days, vs DMSO) | cholesterol accumulation in LE/Lys (Filipin-Lamp1 colocalization) (WT MEFs [2]; 1 μM for 1-4 days, vs DMSO) | colocalization of VPS35 and EEA1 with Lamp1 (WT MEFs [2]; 1 μM for 1-4 days, from day 3 onward) | VPS35-positive organelles (size) (WT MEFs [2]; 1 μM, following 3 days of treatment) | lysosomal Ca2+ content (WT MEFs [3]; 1 μM for 1-4 days, 100 μM GPN) | lysosomal Ca2+ content (WT MEFs [3]; WT cells, 1 μM, 4 days)
O=c1c(-c2ccc(O)cc2)coc2cc(O)cc(O)c12 [Genistein] | increase lysosomal exocytosis with a decrease in cholesterol accumulation |  |  |  |  |  |  |  |  | 
C[C@H](NC(=O)Cc1cc(F)cc(F)c1)C(=O)N[C@H](C(=O)OC(C)(C)C)c1ccccc1 [DAPT] |  | rapidly accumulated APP-CTFs | did not affect the GPN-elicited Ca2+ response | significantly enlarged only after 4 days of treatment | increasing APP-CTF accumulation | only significantly from day 2 | increased colocalization of VPS35 and EEA1 with Lamp1 | found to be increased | significantly reduced lysosomal Ca2+ content | reduced
